Paper PMC7479175, “Selection of Potent Inhibitors of Soluble Epoxide Hydrolase for Usage in Veterinary Medicine” (Frontiers in Veterinary Science, 2020)

Key:
Format in all cases: biochemical
[1] = target: T1, sEH activity from liver cytosol of Mouse (Mus musculus, UniProt P34914); experiment: sEH inhibition potency (IC50), radioactive assay with [3H]t-DPPO, liver cytosol; settings: [3H]t-DPPO ([S]final = 5 μM) as substrate
T1 construct: The radioactive fluorescent assay was used with the liver crude extracts; from tissue; host or cells: mouse liver cytosol (100,000 g supernatant)
T1 sequence (P34914 1-554): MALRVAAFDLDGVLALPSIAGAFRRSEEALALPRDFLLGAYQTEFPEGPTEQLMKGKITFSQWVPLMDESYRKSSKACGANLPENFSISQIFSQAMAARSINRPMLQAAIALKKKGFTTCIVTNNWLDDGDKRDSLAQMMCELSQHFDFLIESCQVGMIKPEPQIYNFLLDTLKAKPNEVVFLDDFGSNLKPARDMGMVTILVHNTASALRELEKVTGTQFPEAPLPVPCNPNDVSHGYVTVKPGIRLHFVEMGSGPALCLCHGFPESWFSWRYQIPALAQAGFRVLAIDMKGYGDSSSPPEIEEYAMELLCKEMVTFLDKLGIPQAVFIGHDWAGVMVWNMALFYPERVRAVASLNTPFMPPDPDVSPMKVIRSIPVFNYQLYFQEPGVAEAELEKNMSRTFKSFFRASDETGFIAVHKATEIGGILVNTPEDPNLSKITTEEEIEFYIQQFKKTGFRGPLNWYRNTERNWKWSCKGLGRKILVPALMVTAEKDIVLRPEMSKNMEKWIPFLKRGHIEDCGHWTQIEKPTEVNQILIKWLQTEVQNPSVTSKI

[2] = target: sEH activity from liver cytosol of Cow (Bos taurus, UniProt Q17QK4); experiment: as above; settings: [3H]t-DPPO ([S]final = 5 μM) as substrate
Dog sEH = target: T2, Dog sEH (Canis lupus familiaris, UniProt A0A8I3NJL8); experiment: Primary screen (end point) of the sEH inhibitor library, PHOME substrate; settings: [I] = 100 nM, primary end-point screening; read-out: Dog sEH Inhibition (%) P.
T2 sequence (A0A8I3NJL8 1-556): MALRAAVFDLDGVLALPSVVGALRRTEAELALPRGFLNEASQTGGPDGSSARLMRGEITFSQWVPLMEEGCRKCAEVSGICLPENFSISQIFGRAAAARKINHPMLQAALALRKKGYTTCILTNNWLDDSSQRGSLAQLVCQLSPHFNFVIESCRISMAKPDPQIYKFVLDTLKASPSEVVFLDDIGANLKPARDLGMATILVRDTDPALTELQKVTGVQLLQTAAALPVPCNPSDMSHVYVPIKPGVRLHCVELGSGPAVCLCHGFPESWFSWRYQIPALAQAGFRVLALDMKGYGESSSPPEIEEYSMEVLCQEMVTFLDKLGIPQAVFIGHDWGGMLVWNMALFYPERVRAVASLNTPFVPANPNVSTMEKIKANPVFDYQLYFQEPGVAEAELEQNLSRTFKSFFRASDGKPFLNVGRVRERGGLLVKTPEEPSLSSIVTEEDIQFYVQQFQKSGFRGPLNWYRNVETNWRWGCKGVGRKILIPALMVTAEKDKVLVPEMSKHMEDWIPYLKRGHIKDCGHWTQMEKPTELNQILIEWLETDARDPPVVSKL
Protocol: (§1) Primary screening of the library was performed with an inhibitor concentration of 100 nM using PHOME as substrate ([22]). […] The plates were then mixed and incubated at 30°C for 5 min. Across each plate, 30 μL of the working substrate solution (270 μL of 5 mM PHOME solution in DMSO diluted with 3,680 μL of buffer) were added quickly to yield [S]final: 50 μM. Each plate was further incubated at room temperature (horse sEH: 60 min; cat sEH: 45 min; dog sEH: 30 min).

Cat sEH = Cat sEH (Felis catus, UniProt A0ABI7ZL20); experiment: as above; settings: read-out: Cat sEH Inhibition (%) P.
Protocol: as §1

Horse sEH [3] = target: T3, Horse sEH (Equus caballus, UniProt F7C407); experiment: as above; settings: [I] = 100 nM, primary end-point screening; read-out: Horse sEH Inhibition (%) P.
Protocol: as §1

Horse sEH [4] = target: T3, Horse sEH; experiment: Secondary screen (kinetic mode), PHOME substrate; settings: [I] = 100 nM, secondary kinetic mode screening; read-out: Horse sEH Inhibition (%) S.

T3 sequence (F7C407 entry or part of it): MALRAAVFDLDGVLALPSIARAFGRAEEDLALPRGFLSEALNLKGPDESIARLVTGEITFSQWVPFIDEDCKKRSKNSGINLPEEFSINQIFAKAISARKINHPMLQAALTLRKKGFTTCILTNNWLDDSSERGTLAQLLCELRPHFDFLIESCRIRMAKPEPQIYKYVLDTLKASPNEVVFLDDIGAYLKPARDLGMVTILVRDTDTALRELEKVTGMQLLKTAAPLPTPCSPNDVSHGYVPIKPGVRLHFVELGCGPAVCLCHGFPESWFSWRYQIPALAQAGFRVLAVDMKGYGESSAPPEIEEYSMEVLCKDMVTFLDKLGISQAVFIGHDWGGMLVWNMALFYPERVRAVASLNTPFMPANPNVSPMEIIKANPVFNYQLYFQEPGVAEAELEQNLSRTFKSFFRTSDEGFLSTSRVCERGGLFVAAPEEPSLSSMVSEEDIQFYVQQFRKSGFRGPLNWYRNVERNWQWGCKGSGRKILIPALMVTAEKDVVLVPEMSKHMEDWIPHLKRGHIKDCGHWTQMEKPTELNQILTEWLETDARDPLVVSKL
Chain of Cat sEH (A0ABI7ZL20 entry or part of it): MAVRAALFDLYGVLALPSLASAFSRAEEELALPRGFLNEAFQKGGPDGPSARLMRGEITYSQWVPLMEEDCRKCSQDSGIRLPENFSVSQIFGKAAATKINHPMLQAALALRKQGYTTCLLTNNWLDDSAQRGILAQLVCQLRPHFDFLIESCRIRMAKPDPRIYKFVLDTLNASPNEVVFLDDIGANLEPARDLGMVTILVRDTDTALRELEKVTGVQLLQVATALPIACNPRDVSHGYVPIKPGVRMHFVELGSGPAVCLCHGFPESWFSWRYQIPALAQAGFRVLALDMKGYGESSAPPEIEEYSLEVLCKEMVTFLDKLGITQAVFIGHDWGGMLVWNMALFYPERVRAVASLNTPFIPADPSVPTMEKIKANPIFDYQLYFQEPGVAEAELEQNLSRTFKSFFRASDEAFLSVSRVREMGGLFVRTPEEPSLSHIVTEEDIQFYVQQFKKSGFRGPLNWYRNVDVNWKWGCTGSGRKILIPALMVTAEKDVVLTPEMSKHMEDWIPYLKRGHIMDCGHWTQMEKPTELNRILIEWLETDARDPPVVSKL
Chain of sEH activity from liver cytosol of Cow (Q17QK4 entry or part of it): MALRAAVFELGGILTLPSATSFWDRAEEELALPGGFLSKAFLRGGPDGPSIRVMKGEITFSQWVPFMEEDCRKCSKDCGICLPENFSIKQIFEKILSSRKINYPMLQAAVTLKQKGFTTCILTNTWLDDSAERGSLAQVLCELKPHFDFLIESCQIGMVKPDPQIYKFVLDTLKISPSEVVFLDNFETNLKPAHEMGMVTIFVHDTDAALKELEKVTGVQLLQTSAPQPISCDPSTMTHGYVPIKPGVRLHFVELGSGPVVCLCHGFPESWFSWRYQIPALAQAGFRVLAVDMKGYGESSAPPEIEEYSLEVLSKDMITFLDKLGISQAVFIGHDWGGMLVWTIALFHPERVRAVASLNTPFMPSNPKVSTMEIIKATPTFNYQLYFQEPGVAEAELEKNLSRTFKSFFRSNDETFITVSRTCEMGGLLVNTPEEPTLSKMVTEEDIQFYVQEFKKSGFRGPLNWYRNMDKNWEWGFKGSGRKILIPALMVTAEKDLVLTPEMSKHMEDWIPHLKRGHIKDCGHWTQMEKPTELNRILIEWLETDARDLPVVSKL

Structure (SMILES)	IC50 [1] [nM]	IC50 [2] [nM]	inhibition at 0.1 µM (Dog sEH) [%]	inhibition at 0.1 µM (Cat sEH) [%]	inhibition at 0.1 µM (Horse sEH [3]) [%]	inhibition at 0.1 µM (Horse sEH [4]) [%]
O=C(NCCCCOc1ccc(F)cc1)NC12CC3CC(CC(C3)C1)C2 [1,707]	10	7	< 90	94	101	87
N#CNC(=O)CCCCCCCCCCCNC(=O)NC12CC3CC(CC(C3)C1)C2 [1,845]	17	11	95	101	100	88
